This passage reports inhibition and Activity results from ChEMBL document CHEMBL3351624, “A semi-synthetic derivative of artemisinin, artesunate inhibits prostaglandin E2 production in LPS/IFNγ-activated BV2 microglia” (Bioorg Med Chem, 2014).

The source made the active and inactive calls. No cut-off for these calls is given here.

Data set [1] deals with BV-2. Briefly: Antiinflammatory activity in mouse BV2 cells assessed as inhibition of LPS/IFNgamma-induced PGE2 production at 2 uM after 24 hrs by enzyme immunoassay. It counts as functional, cell-based.
Data set [2] can be described thus: Antiinflammatory activity in mouse BV2 cells assessed as LPS/IFNgamma-induced PGE2 production at 4 uM after 24 hrs by enzyme immunoassay. Type of data set: functional, BV-2.
The test system of data set [3] is BV-2. Briefly: Antiinflammatory activity in mouse BV2 cells assessed as inhibition of LPS/IFNgamma-induced COX2 expression at 0.5 to 4 uM after 24 hrs by Western blot. Type of data set: functional, cell-based. Background: A western blot detects proteins with antibodies after separation by electrophoresis.
Data set [4] is described as follows: Antiinflammatory activity in mouse BV2 cells assessed as LPS/IFNgamma-induced COX2 expression at 4 uM after 24 hrs by Western blot. Type of data set: functional, BV-2.
Data set [5] deals with BV-2. Briefly: Antiinflammatory activity in mouse BV2 cells assessed as inhibition of LPS/IFNgamma-induced mPGES1 expression at 0.5 to 4 uM after 24 hrs by Western blot. It counts as functional, cell-based.
For data set [6], the system named is BV-2. The experiment in a line: Antiinflammatory activity in mouse BV2 cells assessed as inhibition of LPS/IFNgamma-induced IL6 production at 0.5 to 4 uM pre-incubated before LPS/IFNgamma challenge and measured 24 hrs post LPS/IFNgamma challenge by ELISA method. Type of data set: functional, cell-based. (In an ELISA, binding on a coated surface is turned into a signal by an enzyme label.)

The test system of data set [7] is BV-2. The experiment in a line: Antiinflammatory activity in mouse BV2 cells assessed as inhibition of LPS/IFNgamma-induced TNFalpha production at 1 to 4 uM pre-incubated before LPS/IFNgamma challenge and measured 24 hrs post LPS/IFNgamma challenge by ELISA method. Type of data set: functional, cell-based.
A short description of data set [8]: Toxicity against LPS/IFNgamma-induced mouse BV2 cells assessed as cell viability at 0.5 to 4 uM pre-incubated before LPS/IFNgamma challenge and measured 24 hrs post LPS/IFNgamma challenge by MTT assay. Type of data set: cell-based. To be noted: bv-2, 24 h. For orientation: Tetrazolium dyes change colour on reduction, which living cells bring about.
In data set [9] the target is T1, Nuclear factor NF-kappa-B complex (Homo sapiens) (UniProt Q00653+P19838+Q04206). Briefly: Inhibition of NFkappaB (unknown origin) expressed in HEK293 cells assessed as reduction in TNFalpha-induced gene transcription at 0.5 to 4 uM pre-incubated for 30 mins prior to stimulation with TNFalpha for 6 hrs by luciferase reporter gene assay. It counts as cell-based.
Data set [10] concerns the target T1, Nuclear factor NF-kappa-B complex (Homo sapiens). Briefly: Inhibition of NFkappaB (unknown origin) expressed in HEK293 cells assessed as TNFalpha-induced gene transcription at 4 uM pre-incubated for 30 mins prior to stimulation with TNFalpha for 6 hrs by luciferase reporter gene assay. Type of data set: cell-based. Also on record: scale not given: the % may be the effect or the level left.

Data set [11] deals with BV-2. Briefly: Inhibition of IKK in mouse BV2 cells assessed as LPS/IFNgamma-induced IkappaB phosphorylation level at 0.5 uM pre-incubated for 30 mins before LPS/IFNgamma challenge for 1 hr by Western blot method. It counts as cell-based. Further details: scale not given: the % may be the effect or the level left.
The subject of data set [12] is BV-2. The experiment in a line: Inhibition of IKK in mouse BV2 cells assessed as LPS/IFNgamma-induced IkappaB phosphorylation level at 1 uM pre-incubated for 30 mins before LPS/IFNgamma challenge for 1 hr by Western blot method. It counts as cell-based. Further details: scale not given: the % may be the effect or the level left.
In data set [13] the test system is BV-2. The experiment in a line: Inhibition of IKK in mouse BV2 cells assessed as LPS/IFNgamma-induced IkappaB phosphorylation level at 2 uM pre-incubated for 30 mins before LPS/IFNgamma challenge for 1 hr by Western blot method. Type of data set: cell-based. Further details: scale not given: the % may be the effect or the level left.
The test system of data set [14] is BV-2. Briefly: Inhibition of IKK in mouse BV2 cells assessed as LPS/IFNgamma-induced IkappaB phosphorylation level at 4 uM pre-incubated for 30 mins before LPS/IFNgamma challenge for 1 hr by Western blot method. Type of data set: cell-based. Also on record: scale not given: the % may be the effect or the level left.
For data set [15], the system named is BV-2. Briefly: Inhibition of IKK in mouse BV2 cells assessed as reduction in LPS/IFNgamma-induced IkappaB degradation at 0.5 to 4 uM pre-incubated for 30 mins before LPS/IFNgamma challenge for 1 hr by Western blot method. It counts as cell-based.
Data set [16] deals with BV-2. The experiment in a line: Inhibition of IKK in mouse BV2 cells assessed as reduction in LPS/IFNgamma-induced IkappaB phosphorylation level at 4 uM pre-incubated for 30 mins before LPS/IFNgamma challenge for 1 hr by ELISA method. It counts as cell-based.
Data set [17] deals with BV-2. Briefly: Inhibition of IKK in mouse BV2 cells assessed as reduction in LPS/IFNgamma-induced IkappaB degradation at 0.5 to 4 uM pre-incubated for 30 mins before LPS/IFNgamma challenge for 1 hr by ELISA method. Type of data set: cell-based.
The target of data set [18] is T2, Inhibitor of nuclear factor kappa-B kinase subunit alpha (Mus musculus) (UniProt Q60680).
T2 sequence (whole entry): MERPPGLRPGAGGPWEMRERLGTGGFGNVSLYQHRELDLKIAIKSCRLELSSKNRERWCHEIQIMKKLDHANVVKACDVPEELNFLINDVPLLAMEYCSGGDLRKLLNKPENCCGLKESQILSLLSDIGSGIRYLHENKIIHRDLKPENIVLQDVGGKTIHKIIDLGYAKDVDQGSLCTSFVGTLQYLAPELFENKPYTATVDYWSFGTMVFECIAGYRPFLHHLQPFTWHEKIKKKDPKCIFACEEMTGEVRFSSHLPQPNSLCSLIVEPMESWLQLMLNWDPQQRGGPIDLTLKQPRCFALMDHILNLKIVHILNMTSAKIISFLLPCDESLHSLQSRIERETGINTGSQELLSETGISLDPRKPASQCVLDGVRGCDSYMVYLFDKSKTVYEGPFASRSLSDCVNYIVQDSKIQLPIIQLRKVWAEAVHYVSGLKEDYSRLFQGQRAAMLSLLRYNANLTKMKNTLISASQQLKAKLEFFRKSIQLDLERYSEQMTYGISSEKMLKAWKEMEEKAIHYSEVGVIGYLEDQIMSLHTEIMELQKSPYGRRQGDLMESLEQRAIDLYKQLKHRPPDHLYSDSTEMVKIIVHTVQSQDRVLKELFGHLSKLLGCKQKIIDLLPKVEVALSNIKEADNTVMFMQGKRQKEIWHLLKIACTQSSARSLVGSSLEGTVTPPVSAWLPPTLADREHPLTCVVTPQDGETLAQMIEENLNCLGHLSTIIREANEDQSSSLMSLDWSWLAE
Briefly: Inhibition of LPS/IFNgamma-induced IKKalpha phosphorylation in mouse BV2 cells at 1 to 4 uM pre-incubated for 30 mins before LPS/IFNgamma challenge for 1 hr by Western blot method. Type of data set: cell-based. To be noted: BV-2.

Data set [19] deals with T3, Inhibitor of nuclear factor kappa-B kinase subunit beta (Mus musculus) (UniProt O88351).
T3 sequence (whole entry): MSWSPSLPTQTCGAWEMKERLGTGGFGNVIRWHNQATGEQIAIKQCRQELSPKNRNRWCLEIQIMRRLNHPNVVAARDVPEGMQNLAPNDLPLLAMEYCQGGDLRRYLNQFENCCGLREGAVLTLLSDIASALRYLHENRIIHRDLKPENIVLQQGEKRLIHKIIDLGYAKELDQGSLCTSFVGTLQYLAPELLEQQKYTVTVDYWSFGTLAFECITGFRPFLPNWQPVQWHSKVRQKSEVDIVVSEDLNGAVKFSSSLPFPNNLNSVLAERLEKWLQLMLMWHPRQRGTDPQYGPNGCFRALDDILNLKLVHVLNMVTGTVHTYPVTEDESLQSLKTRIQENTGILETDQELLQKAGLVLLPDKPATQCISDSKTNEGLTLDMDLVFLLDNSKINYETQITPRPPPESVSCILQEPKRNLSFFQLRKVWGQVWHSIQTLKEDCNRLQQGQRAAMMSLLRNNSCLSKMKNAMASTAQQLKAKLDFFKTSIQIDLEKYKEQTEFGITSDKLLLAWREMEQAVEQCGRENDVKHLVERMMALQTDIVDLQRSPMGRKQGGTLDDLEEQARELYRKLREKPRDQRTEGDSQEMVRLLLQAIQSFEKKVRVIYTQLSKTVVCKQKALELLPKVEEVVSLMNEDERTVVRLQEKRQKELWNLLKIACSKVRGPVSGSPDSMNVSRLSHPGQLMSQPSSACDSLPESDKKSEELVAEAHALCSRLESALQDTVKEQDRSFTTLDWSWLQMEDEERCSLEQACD
Briefly: Inhibition of LPS/IFNgamma-induced IKKbeta phosphorylation in mouse BV2 cells at 1 to 4 uM pre-incubated for 30 mins before LPS/IFNgamma challenge for 1 hr by Western blot method. It counts as cell-based. Conditions: BV-2.

The target in data set [20] is T4, MAP kinase p38 (Mus musculus) (UniProt P47811+O08911+Q9WUI1+Q9Z1B7). The experiment in a line: Inhibition of LPS/IFNgamma-induced p38 phosphorylation in mouse BV2 cells at 1 to 4 uM pre-incubated for 30 mins before LPS/IFNgamma challenge for 1 hr by Western blot method. Conditions: BV-2. It counts as cell-based.
Data set [21] concerns the target T4, MAP kinase p38 (Mus musculus). The experiment in a line: Inhibition of p38 in mouse BV2 cells assessed as reduction in LPS/IFNgamma-induced MAPKAPK2 phosphorylation at 1 to 4 uM pre-incubated for 30 mins before LPS/IFNgamma challenge for 1 hr by Western blot method. It counts as cell-based. To be noted: BV-2.

T1 sequence (P19838 whole entry, looked up): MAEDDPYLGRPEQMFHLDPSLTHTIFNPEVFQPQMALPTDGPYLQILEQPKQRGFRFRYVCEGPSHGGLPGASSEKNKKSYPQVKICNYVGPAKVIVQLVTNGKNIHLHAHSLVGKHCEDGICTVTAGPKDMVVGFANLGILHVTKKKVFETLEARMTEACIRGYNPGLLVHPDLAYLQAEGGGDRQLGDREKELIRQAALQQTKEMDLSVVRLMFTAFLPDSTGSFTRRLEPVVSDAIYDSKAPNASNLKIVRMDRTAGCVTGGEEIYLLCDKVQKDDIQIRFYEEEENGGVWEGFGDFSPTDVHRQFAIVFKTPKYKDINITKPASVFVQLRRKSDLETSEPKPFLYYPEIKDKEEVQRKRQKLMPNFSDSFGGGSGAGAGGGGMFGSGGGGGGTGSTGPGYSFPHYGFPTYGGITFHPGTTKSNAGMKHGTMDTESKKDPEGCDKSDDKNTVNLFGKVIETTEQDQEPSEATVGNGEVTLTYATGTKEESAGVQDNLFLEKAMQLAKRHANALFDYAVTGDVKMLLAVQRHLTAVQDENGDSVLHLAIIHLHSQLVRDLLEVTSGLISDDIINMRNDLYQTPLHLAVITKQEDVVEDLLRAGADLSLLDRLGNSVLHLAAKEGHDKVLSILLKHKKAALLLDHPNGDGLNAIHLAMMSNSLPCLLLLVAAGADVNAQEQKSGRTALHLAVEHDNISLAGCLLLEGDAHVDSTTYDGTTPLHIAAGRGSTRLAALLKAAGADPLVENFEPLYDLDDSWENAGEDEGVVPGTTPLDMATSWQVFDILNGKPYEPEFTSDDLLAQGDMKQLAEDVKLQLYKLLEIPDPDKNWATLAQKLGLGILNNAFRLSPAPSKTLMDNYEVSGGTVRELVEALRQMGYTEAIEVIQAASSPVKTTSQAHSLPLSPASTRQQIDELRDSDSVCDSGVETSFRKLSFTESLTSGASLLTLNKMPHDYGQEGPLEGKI
T1 sequence (Q00653 whole entry, looked up): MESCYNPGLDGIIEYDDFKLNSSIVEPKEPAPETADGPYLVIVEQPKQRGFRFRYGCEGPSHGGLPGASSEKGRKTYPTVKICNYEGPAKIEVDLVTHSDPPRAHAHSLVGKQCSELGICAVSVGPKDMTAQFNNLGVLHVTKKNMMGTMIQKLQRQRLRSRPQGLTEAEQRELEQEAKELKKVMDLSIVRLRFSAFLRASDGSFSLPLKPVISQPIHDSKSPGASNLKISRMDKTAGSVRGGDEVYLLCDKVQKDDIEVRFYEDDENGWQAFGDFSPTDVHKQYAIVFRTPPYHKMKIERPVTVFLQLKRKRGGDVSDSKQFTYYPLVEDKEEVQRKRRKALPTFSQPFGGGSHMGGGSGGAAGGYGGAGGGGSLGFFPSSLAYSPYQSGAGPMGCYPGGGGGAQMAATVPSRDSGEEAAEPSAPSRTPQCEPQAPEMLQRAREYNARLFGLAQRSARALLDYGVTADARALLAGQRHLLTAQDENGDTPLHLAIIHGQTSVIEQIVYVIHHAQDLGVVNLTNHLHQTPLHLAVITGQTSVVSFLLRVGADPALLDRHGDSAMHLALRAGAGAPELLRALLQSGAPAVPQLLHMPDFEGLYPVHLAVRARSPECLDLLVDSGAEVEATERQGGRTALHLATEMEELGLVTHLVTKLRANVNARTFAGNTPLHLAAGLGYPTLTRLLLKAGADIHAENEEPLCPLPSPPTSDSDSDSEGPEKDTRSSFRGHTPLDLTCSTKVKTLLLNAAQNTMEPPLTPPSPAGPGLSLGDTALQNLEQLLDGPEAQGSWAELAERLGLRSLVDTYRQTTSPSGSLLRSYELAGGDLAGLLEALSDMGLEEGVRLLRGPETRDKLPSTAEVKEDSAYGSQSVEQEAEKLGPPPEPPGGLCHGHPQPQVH
T1 sequence (Q04206 whole entry, looked up): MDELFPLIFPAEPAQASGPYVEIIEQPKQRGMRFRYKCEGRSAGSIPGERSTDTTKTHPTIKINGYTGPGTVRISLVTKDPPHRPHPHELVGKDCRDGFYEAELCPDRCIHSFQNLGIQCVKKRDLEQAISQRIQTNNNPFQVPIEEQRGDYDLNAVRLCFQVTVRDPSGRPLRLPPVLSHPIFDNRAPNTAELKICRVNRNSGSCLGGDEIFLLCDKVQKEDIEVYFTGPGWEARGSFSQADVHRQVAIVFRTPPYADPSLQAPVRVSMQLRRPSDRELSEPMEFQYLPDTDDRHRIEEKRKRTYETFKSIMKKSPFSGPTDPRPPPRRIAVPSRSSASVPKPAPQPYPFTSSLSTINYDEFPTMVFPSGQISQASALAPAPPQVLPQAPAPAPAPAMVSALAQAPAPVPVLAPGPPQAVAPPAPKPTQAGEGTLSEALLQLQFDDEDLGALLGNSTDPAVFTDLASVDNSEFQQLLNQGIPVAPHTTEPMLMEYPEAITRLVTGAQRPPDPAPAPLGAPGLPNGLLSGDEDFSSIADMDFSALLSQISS

With `C[C@H]1[C@H](OC(=O)CCC(=O)O)O[C@@H]2O[C@@]3(C)CC[C@H]4[C@H](C)CC[C@@H]1[C@@]24OO3` [ARTESUNATE], the inhibition result (in the data set on BV-2 [1]; in the data set with BV-2 [3]; in the data set with BV-2 [5]; with BV-2 [7]; in data set [9]; in the data set with BV-2 [15]) was “Active” each time. Also, the inhibition entry (in the data set with BV-2 [16]; in the data set with BV-2 [17]; in data set [18]; in data set [19]; in [20]; in data set [21]) was “Active” in each case. Besides, the Activity is 38.8% in data set [2]; 55% in data set [4]; “Non-toxic” in data set [8]; 35.4% in data set [10]; 68.8% in the data set on BV-2 [11]; 56.4% in the data set on BV-2 [12]. Besides, the values for the Activity in the data set with BV-2 [13] and in the data set with BV-2 [14] were 44.3% and 44.4%, respectively. Besides, the inhibition result in the data set on BV-2 [6] was “Dose-dependent effect”.
